In the assay the target is T1, GST-tagged-Wee1 kinase (Homo sapiens, UniProt P30291).
T1 construct: purchased Carnabio 05-177
The assay is described as follows: Wee1 time-resolved fluorescence equilibrium binding assay (displacement of Oregon Green-labeled ATP-competitive probe). As to conditions: TR-FRET probe displacement; 2 nM GST-Wee1, 300 nM probe, 1 hour incubation; read-out: Wee-1 binding (Ki nM). How it is done:
Wee1 kinase was assayed using a time-resolved fluorescence equilibrium binding assay monitoring displacement of a rapidly reversible Oregon Green-labeled ATP-competitive kinase probe (N-(2-(2-(2-(4-(4-(5-chloro-4-(2-(1-hydroxycyclobutyl)thiazol-5-yl)-1H-pyrrolo[2,3-b]pyridin-2-yl)phenyl)piperazin-1-yl)ethoxy)ethoxy)ethyl)-2′,7′-difluoro-3′,6′-dihydroxy-3-oxo-3H-spiro[isobenzofuran-1,9′-xanthene]-5-carboxamide) by competitive Wee1 inhibitors.

Broadly, the Ki is a measure of affinity in units of concentration, obtained from inhibition or displacement.

T1 sequence (P30291 whole entry): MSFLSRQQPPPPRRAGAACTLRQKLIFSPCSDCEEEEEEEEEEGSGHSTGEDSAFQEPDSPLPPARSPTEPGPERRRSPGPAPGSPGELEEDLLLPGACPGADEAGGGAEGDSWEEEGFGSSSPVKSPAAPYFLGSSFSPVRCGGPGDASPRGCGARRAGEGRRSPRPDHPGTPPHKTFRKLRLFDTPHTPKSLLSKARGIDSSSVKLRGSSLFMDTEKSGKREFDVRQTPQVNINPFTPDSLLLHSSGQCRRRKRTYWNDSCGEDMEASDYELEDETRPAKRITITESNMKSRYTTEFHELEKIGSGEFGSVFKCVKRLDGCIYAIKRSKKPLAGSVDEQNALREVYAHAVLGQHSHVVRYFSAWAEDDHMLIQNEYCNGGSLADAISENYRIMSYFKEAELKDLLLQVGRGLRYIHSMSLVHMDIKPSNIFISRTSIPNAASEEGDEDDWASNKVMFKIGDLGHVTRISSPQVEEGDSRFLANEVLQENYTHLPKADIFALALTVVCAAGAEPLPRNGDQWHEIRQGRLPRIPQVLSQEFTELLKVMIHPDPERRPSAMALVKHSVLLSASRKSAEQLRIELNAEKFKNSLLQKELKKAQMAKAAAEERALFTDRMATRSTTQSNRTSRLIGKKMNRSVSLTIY

`CCCN1c2cc(-c3c[nH]c4ncccc34)ccc2-c2nc(Nc3ccc(N4CCN(C)CC4)cc3)ncc2S1(=O)=O` [Example 77, N-[4-(4-methylpiperazin-1-yl)phenyl]-6-propyl-8-(1H-pyrrolo[2,3-b]pyridin-3-yl)-6H-pyrimido[5,4-c][2,1]benzothiazin-2-amine 5,5-dioxide]: the inhibitory constant (Ki) turned out to be 57 nM.

Take `CCCN1c2cc(C(=O)NC3CCCCC3)ccc2-c2nc(Nc3ccc(N4CCN(C)CC4)cc3)ncc2S1(=O)=O` [Example 81, N-cyclohexyl-2-{[4-(4-methylpiperazin-1-yl)phenyl]amino}-6-propyl-6H-pyrimido[5,4-c][2,1]benzothiazine-8-carboxamide 5,5-dioxide]: the Ki was found to be 13 nM.

`C=CCN1c2ncccc2-c2nc(Nc3ccc4c(c3)CCNC4)ncc2S1(=O)=O` [Example 46, 6-allyl-N-(1,2,3,4-tetrahydroisoquinolin-6-yl)-6H-pyrido[2,3-c]pyrimido[4,5-e][1,2]thiazin-2-amine 5,5-dioxide]: the Ki stood at 2 nM. The result for `C=CCN1c2ccccc2-c2nc(Nc3ccccc3N3CCN(C)CC3)ncc2S1(=O)=O` [Example 12, 6-allyl-N-[2-(4-methylpiperazin-1-yl)phenyl]-6H-pyrimido[5,4-c][2,1]benzothiazin-2-amine 5,5-dioxide] reads 738 nM. With `CCCN1c2cc(C(C)(C)O)ccc2-c2nc(Nc3ccc(N4CCN(C)CC4)cc3)ncc2S1(=O)=O` [Example 80, 2-(2-{[4-(4-methylpiperazin-1-yl)phenyl]amino}-5,5-dioxido-6-propyl-6H-pyrimido[5,4-c][2,1]benzothiazin-8-yl)propan-2-ol], the Ki turned out to be 14 nM. The result for `C=CCN1c2ncccc2-c2nc(Nc3ccc4c(c3)CNCC43CC3)ncc2S1(=O)=O` [Example 54, 6-allyl-N-(2′,3′-dihydro-1′H-spiro[cyclopropane-1,4′-isoquinolin]-7′-yl)-6H-pyrido[2,3-c]pyrimido[4,5-e][1,2]thiazin-2-amine 5,5-dioxide] reads 1.2 nM.

Values taken from patent US8716297B2, “Chemical entities to be used for Wee1 inhibition for the treatment of cancer” (AbbVie Inc., priority 2011, dated 2014).
